Data: ChEMBL document CHEMBL1201862, “PubChem BioAssay data set” (2004)
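Cells were grown in 96-well plates and exposed to each compound for 48 hours at five concentrations; endpoints were interpolated linearly between bracketing concentrations, or set to the highest concentration if not reached. Here, GI50 denotes the concentration required for 50% inhibition of growth.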 The source made the active and inactive calls. No stated cut-off is given here; in the data, active = GI50 up to about 1.1 µM and inactive = higher.

Experiments:
Experiment in all cases: NCI-60 cell line screen, 48 h
[1] = test system: DLD-1
[2] = test system: DMS-114
[3] = test system: DMS-273
[4] = test system: HOP-18
[5] = test system: LXFL 529
[6] = test system: RXF 631
[7] = test system: SNB-78
[8] = test system: XF498

Measured: GI50

CC(C)c1ccc(/C=C(\NC(=O)c2ccccc2)c2nc3ccccc3[nH]2)cc1
inactive: [1] 30.3 µM | [2] 25.3 µM | [3] 37.9 µM | [4] 26.4 µM | [5] 31.8 µM | [6] 23.6 µM | [7] 42.9 µM | [8] 55.3 µM

COc1ccc(C2=Nc3ccccc3NC(=O)C2)cc1
inactive: [1] 62.8 µM | [2] 20.7 µM | [3] 27.4 µM | [4] > 100 µM | [5] > 100 µM | [6] > 100 µM | [7] 25.2 µM | [8] 20.1 µM

O=C(/C=C/c1c(O)ccc2ccccc12)c1ccccc1
inactive: [1] 85.7 µM | [2] > 100 µM | [3] > 100 µM | [4] 36.8 µM | [5] > 100 µM | [6] > 100 µM | [7] > 100 µM | [8] > 100 µM

C/C(=N/NC(=O)c1ccccc1O)c1ccc(/C(C)=N\NC(=O)c2ccccc2O)c2nc3cc(C)c(C)cc3nc12
inactive: [1] > 100 µM | [2] > 100 µM | [3] > 100 µM | [4] 44.2 µM | [5] > 100 µM | [6] > 100 µM | [7] > 100 µM | [8] > 100 µM

Cc1cc2cc(Cl)ccc2nc1C(=O)c1ccccc1
inactive: [1] > 100 µM | [2] > 100 µM | [3] > 100 µM | [4] > 100 µM | [5] > 100 µM | [6] > 100 µM | [7] > 100 µM | [8] > 100 µM

c1ccc(C2C3=C(Nc4ncnn42)c2ccccc2C3)cc1 (configuration not stated)
inactive: [1] 14.1 µM | [2] 7.1 µM | [3] 12.1 µM | [4] 56.1 µM | [6] > 100 µM | [7] > 100 µM | [8] 15.4 µM
